Measurements as given in PubChem BioAssay AID652289 (Broad Institute, 2013).
Several values for one entry are separate records, joined by “and”; a condition that tells them apart may be missing. Equal entries are not always repeated. Activity calls are given as the source filed them. How the calls were made is not given here.

Columns and labels:
[1] = light production inducers, absence of autoinducers, V. cholerae bh1651 strain, confirmatory (AID 652289); conditions: V. cholerae BH1651 luxOD47E, luciferase light induction, 6 h
[2] = test system: V. cholerae BH1651 luxOD47E, luciferase light induction, 6 h; assay: as above

SMILES | light induction ([1]; at 100 µM (top of the series)) | AC40 [2] | also measured
O=C(Nc1nnc(-c2cccc(Cl)c2)o1)C1CCCCC1 | – | – | light induction ([1]; at 80 µM (top of the series)): 0.065% (inactive)
CN1CCC(C(=O)Nc2nnc(-c3ccc4c(c3)OCCO4)o2)CC1 | 0.052% (inactive) | – | –
Cn1ccc(NC(=O)c2ccco2)n1 | 0.053% (inactive) | – | –
Cc1ccc2cc3c(NC(=O)c4ccccn4)nn(C)c3nc2c1 | 0.001% (inactive) | – | –
O=C(CC1CCCCC1)Nc1nnc(-c2ccc3c(c2)CCCC3)o1 | – | – | light induction ([1]; at 35 µM (top of the series)): 0.061% (inactive)
O=C(Nc1nnc(-c2ccc(Cl)cc2)o1)C1CCCCC1 | – | – | light induction ([1]; at 80 µM (top of the series)): -0.026% (inactive)
Cc1ccc2cc3c(NC(=O)C4CCCC4)nn(C)c3nc2c1 | – | 40.6 µM | –
c1ccc(CNc2nnc(-c3ccc4c(c3)OCCO4)o2)cc1 | -0.004% (inactive) | – | –
CC(C)c1ccc2cc3c(NC(=O)c4ccco4)nn(C)c3nc2c1 | 0.507% (inactive) | – | –
CN(C)/C=N/c1nnc(-c2ccc3c(c2)OCCO3)o1 | 0.039% (inactive) | – | –
CCn1nnnc1NCc1ccc(C(C)C)cc1 | -0.004% (inactive) | – | –
O=C(Cc1ccc(-c2ccccc2)cc1)NC1CCC1 | -0.023% (inactive) | – | –
O=C(CC1CCCCC1)Nc1nnc(-c2cccnc2)o1 | – | – | light induction ([1]; at 80 µM (top of the series)): -0.016% (inactive)
O=C(Nc1nnc(-c2ccc3c(c2)OCCO3)o1)C(F)(F)c1ccccc1 | -0.004% (inactive) | – | –
Cc1ccc2cc3c(NC(=O)c4cccs4)nn(C)c3nc2c1 | – | 70.8 µM | –
Cc1ccc2cc3c(NC(=O)c4ccoc4)nn(C)c3nc2c1 | – | – | light induction ([1]; at 80 µM (top of the series)): 2.86% (inactive)
Cn1nc(NC(=O)c2ccco2)c2cccnc21 | – | 58.4 µM | –
COc1ccc2cc3c(NC(=O)c4ccco4)nn(C)c3nc2c1 | – | 2.73 µM | –
Cc1cc(F)cc2nc3c(cc12)c(NC(=O)c1ccco1)nn3C | – | 41.3 µM | –
O=C(Nc1nnc(-c2ccc3c(c2)OCCO3)o1)C1CCCCC1 | – | 5.31 µM and 2.57 µM | –
Cc1cc(F)c2cc3c(NC(=O)c4ccco4)nn(C)c3nc2c1 | – | 33.5 µM | –
O=S(=O)(Nc1nnc(-c2ccc3c(c2)OCCO3)o1)c1ccc(Cl)cc1 | -0.005% (inactive) | – | –
CCCCCCCCCC(=O)C(O)CC (stereo unspecified) | – | – | light induction ([1]; at 50 µM (top of the series)): 0.038% (inactive)
COc1cccc(-c2nnc(NC(=O)C3CCCCC3)o2)c1 | -0.005% (inactive) | – | –
COc1ccc(-c2nnc(NC(C)=O)o2)cc1 | 0.045% (inactive) | – | –
CCC(C)(C)C(=O)Nc1nnc(-c2ccc3c(c2)OCCO3)o1 | – | – | light induction ([1]; at 80 µM (top of the series)): -0.006% (inactive)

SMILES | light induction ([1]; at 100 µM (top of the series)) | AC40 [2] | also measured
Cc1ccc2cc3c(NC(=O)Cc4ccco4)nn(C)c3nc2c1 | 1.12% (inactive) | – | –
O=C(Nc1nnc(-c2cccnc2)o1)C1CCCCC1 | – | 61.3 µM | –
Cn1nc(NC(=O)c2ccco2)c2ccccc21 | – | 89.4 µM | –
Cc1ccc2cc3c(NC(=O)c4ccco4)nn(C)c3nc2c1 | – | 5.26 µM and 15.3 µM | –
O=C(Nc1nnc(-c2ccc3c(c2)OCCO3)o1)C1CCCCCC1 | – | 6.99 µM | –
O=C(Nc1nnc(-c2ccncc2)o1)C1CCC1 | 0.055% (inactive) | – | –
CC(C)(C)OC(=O)N1CCC(C(=O)Nc2nnc(-c3ccc4c(c3)OCCO4)o2)CC1 | 0.028% (inactive) | – | –
Cc1ccc2cc3c(NC(=O)c4cc5ccccc5o4)nn(C)c3nc2c1 | -0.007% (inactive) | – | –
COc1ccc(S(=O)(=O)Nc2nnc(-c3ccc4c(c3)OCCO4)o2)cc1 | 0.005% (inactive) | – | –
Cn1nc(NC(=O)c2ccco2)c2cc3ccc(C(C)(C)C)cc3nc21 | 0% (inactive) | – | –
Cc1cc2nc3c(cc2cc1F)c(NC(=O)c1ccco1)nn3C | – | 68.7 µM | –
CCc1ccc2cc3c(NC(=O)c4ccco4)nn(C)c3nc2c1 | – | 32.9 µM | –
O=C(Nc1nnc(C2CCCC2)o1)C1CCCCC1 | -0.015% (inactive) | – | –
COc1ccc(-c2nnc(NC(=O)C3CCCCC3)o2)cc1 | – | > 100 µM (inactive) | –
CCCCCCCCCC(=O)[C@H](O)CC (racemic) | 0.014% (inactive) | – | –
O=C(Nc1nnc(-c2ccc3c(c2)OCCO3)o1)C1CC1 | 0.004% (inactive) | – | –
O=C(Nc1nnc(-c2ccc3c(c2)OCCO3)o1)C1CCC1 | 0.013% (inactive) | – | –
Cc1ccc2cc3c(NC(=O)c4ccc(C)o4)nn(C)c3nc2c1 | -0.015% (inactive) | – | –
Cc1cc2cc3c(NC(=O)c4ccco4)nn(C)c3nc2cc1C | – | 63.3 µM | –
O=C(Nc1nnc(-c2cccnc2)o1)C1CCC1 | 0.001% (inactive) | – | –
COc1ccccc1-c1nnc(NC(=O)C2CCCCC2)o1 | – | > 100 µM (inactive) | –
Cn1nc(NC(=O)c2ccco2)c2cc3ccccc3nc21 | – | 3.58 µM | –
O=C(Nc1nnc(-c2ccc3c(c2)CCCC3)o1)C1CCC1 | – | – | light induction ([1]; at 80 µM (top of the series)): -0.005% (inactive)
C(=N\c1nnc(-c2ccc3c(c2)OCCO3)o1)/c1ccccc1 | 0.005% (inactive) | – | –
O=C(Nc1nnc(-c2ccccc2Cl)o1)C1CCCCC1 | -0.01% (inactive) | – | –
